Where “and” joins values, the source holds several entries; their conditions need not be identical. Equal values may be shown once. Read-outs that look alike come from different tables or passages of the source.
Tests used:
[1] = biological target: T1, GluK2 kainate receptors (Rattus norvegicus, UniProt P42260); test: Kainate receptors in Xenopus oocytes (selectivity); format: cell-based; conditions: 20 μM
T1 construct: expressed in transfected cells; host or cells: Xenopus laevis oocytes, cRNA injection
T1 sequence (P42260 32-908): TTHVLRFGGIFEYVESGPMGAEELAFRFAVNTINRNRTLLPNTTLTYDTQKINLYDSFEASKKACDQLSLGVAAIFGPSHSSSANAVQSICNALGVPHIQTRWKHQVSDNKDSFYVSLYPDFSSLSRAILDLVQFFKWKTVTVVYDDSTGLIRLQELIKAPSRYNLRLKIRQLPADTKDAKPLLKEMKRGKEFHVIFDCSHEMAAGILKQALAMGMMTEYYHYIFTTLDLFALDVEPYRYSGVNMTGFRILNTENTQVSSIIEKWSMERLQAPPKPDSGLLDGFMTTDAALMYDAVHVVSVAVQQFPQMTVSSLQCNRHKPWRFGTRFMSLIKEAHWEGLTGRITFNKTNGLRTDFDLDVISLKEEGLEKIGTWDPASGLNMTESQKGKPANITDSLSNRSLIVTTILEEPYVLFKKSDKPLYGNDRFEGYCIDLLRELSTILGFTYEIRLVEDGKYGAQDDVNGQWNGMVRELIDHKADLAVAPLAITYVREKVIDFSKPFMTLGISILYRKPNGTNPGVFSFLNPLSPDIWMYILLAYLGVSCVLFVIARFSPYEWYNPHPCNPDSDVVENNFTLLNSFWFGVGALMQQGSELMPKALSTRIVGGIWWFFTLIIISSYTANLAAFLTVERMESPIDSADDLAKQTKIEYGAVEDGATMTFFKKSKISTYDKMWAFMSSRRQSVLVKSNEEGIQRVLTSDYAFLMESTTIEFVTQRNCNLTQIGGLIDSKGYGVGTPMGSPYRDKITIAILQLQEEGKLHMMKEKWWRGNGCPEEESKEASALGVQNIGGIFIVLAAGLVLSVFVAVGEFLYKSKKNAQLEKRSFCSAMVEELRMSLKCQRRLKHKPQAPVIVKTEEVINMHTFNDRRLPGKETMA
Description: The numbers of oocytes recorded are in parentheses.
The cDNA was linearized by restriction enzymes (Thermo Fisher Scientific, Lithuania), and the cRNA encoding the receptor subunits was synthesized from the linear template cDNA using the mMESSAGE mMACHINE kit (Invitrogen/Thermo Fisher Scientific, Lithuania). The α1β1δγ nAChR subunits were injected at a 1:1:1:1 ratio while α4 […] nAChR subunits were injected at a 1:1 ratio. The cDNAs encoding GABA and glycine subunits were provided by Dr. D. Weiss (University of Texas Health Science Center at San Antonio). The cDNAs encoding nAChR subunits were provided by Drs. R. Papke (University of Florida) and S. Heinemann (Salk Institute). The cDNA encoding the purinergic receptor was provided by Dr. R. Hume (University of Michigan).
Responses in the presence of EU1180-438 were expressed as a percent of control calculated as the average of the responses before and after EU1180-438 exposure. […]
Defolliculated Xenopus laevis oocytes (stage V-VI) were obtained from Ecocyte BioScience (Austin, Texas), or prepared from commercially available Xenopus ovaries (Xenopus 1, Dexter, MI) as previously described (Hansen, et al., Mol. Pharmacol., 2013). […] Recording electrodes were filled with 0.3-3.0 M KCl, and current responses were recorded at a holding potential of −40 mV.

[2] = In vivo pharmacokinetics and brain penetration in mice; set-up: species or system mouse
Description: EU1180-438 was dosed at 20 mg/kg intraperitoneal in seven freely-fed male C57BL/6 mice. EU1180-438 was formulated in 5% DMA, 10% PEG, 30% HPBCD, qs to volume w/water.
Plasma was sampled at seven points: pre-dose, 0.25, 0.5, 1, 2, 4, and 8 hours (n=3 per time point, 21 plasma samples per treatment group). […] Samples were analyzed via LC-MS/MS to quantify the amount of parent compound present in each sample.
EU1180-438 was tested in male C57BL/6 mice for brain penetrability. After a single intraperitoneal dose of 20 mg/kg the concentration of EU1180-438 in the plasma was measured. […] The concentration of EU1180-438 in the brain was also measured to determine if the compound can pass the blood-brain barrier. The compound was detected in the brain tissue up to 8 hours after dosage administration.

[3] = mice, 20 mg/kg intraperitoneal, 0.25 hour, 20 mg/kg
[4] = mice, 20 mg/kg intraperitoneal, 1 hour, 20 mg/kg
[5] = mice, 20 mg/kg intraperitoneal, 8 hour, 20 mg/kg

With `COc1ccc(OCC(c2ccc(OC)cc2)N2Cc3ccccc3C2=O)cc1` (racemic) [EU1180-438, 2-(2-(4-methoxyphenoxy)-1-(4-methoxyphenyl)ethyl)isoindolin-1-one] the “activity at GluK2 kainate receptors” value [1] was “virtually no activity”, the “time after dosage up to which compound was detected in brain tissue” value ([2]; male C57BL/6 mice, 20 mg/kg intraperitoneal) was “up to 8 hours” and the “max concentration in plasma” value ([2]; male C57BL/6 mice, single intraperitoneal dose of 20 mg/kg) was 2.75 µM. It also gave a concentration at 0.25 h ([2]; male, C57BL/6, mouse, brain, ip, 20 mg/kg, mice, 20 mg/kg intraperitoneal, 0.25 hour, read-out: Brain Concentration) of 3680 nM, a Kp at 0.25 h ([2]; male, C57BL/6, mouse, brain, ip, 20 mg/kg, mice, 20 mg/kg intraperitoneal, 0.25 hour, read-out: Brain to Plasma Ratio) of 1.6 and a Kp at 0.25 h ([2]; male, C57BL/6, mouse, brain, ip, 20 mg/kg, mice, 20 mg/kg intraperitoneal, 0.25 hour, read-out: Mean Ratio (brain to plasma)) of 1.74. The concentration at 1 h ([2]; male, C57BL/6, mouse, brain, ip, 20 mg/kg, mice, 20 mg/kg intraperitoneal, 1 hour, read-out: Brain Concentration) was 1960 nM, the Kp at 1 h ([2]; male, C57BL/6, mouse, brain, ip, 20 mg/kg, mice, 20 mg/kg intraperitoneal, 1 hour, read-out: Brain to Plasma Ratio) was 1.57 and the Kp at 1 h ([2]; male, C57BL/6, mouse, brain, ip, 20 mg/kg, mice, 20 mg/kg intraperitoneal, 1 hour, read-out: Mean Ratio (brain to plasma)) was 1.79. For the same molecule, the concentration at 2 h ([2]; male, C57BL/6, mouse, brain, ip, 20 mg/kg, mice, 20 mg/kg intraperitoneal, 2 hour, read-out: Brain Concentration) was 1050 nM, the Kp at 2 h ([2]; male, C57BL/6, mouse, brain, ip, 20 mg/kg, mice, 20 mg/kg intraperitoneal, 2 hour, read-out: Mean Ratio (brain to plasma)) was 0.88 and the concentration at 8 h ([2]; male, C57BL/6, mouse, brain, ip, 20 mg/kg, mice, 20 mg/kg intraperitoneal, 8 hour, read-out: Brain Concentration) was 60 nM. It also gave a Kp at 8 h ([2]; male, C57BL/6, mouse, brain, ip, 20 mg/kg, mice, 20 mg/kg intraperitoneal, 8 hour, read-out: Brain to Plasma Ratio) of 1.37, a Kp at 8 h ([2]; male, C57BL/6, mouse, brain, ip, 20 mg/kg, mice, 20 mg/kg intraperitoneal, 8 hour, read-out: Mean Ratio (brain to plasma)) of 1.02 and a concentration at 0.25 h ([2]; male, C57BL/6, mouse, plasma, ip, 20 mg/kg, mice, 20 mg/kg intraperitoneal, 0.25 hour, read-out: Plasma Concentration) of 2300 nM. It also gave a concentration at 1 h ([2]; male, C57BL/6, mouse, plasma, ip, 20 mg/kg, mice, 20 mg/kg intraperitoneal, 1 hour, read-out: Plasma Concentration) of 1250 nM, a concentration at 2 h ([2]; male, C57BL/6, mouse, plasma, ip, 20 mg/kg, mice, 20 mg/kg intraperitoneal, 2 hour, read-out: Plasma Concentration) of 890 nM and a concentration at 8 h ([2]; male, C57BL/6, mouse, plasma, ip, 20 mg/kg, mice, 20 mg/kg intraperitoneal, 8 hour, read-out: Plasma Concentration) of 50 nM. For the same molecule, the “Brain to Plasma Ratio” value [2, 3] was 1.98 and 1.64, the “Plasma Concentration” value [2, 3] was 2050 nM and 2210 nM and the concentration at 0.25 h ([2]; mice, 20 mg/kg intraperitoneal, 0.25 hour, 20 mg/kg, read-out: Brain Concentration) was 4060 nM and 3630 nM. The “Brain to Plasma Ratio” value [2, 4] was 1.96 and 1.83, the “Plasma Concentration” value [2, 4] was 1040 nM and 1170 nM and the concentration at 0.25 h ([2]; mice, 20 mg/kg intraperitoneal, 1 hour, 20 mg/kg, read-out: Brain Concentration) was 2040 nM and 2140 nM. The “Plasma Concentration” value ([2]; mice, 20 mg/kg intraperitoneal, 2 hour, 20 mg/kg) was 920 nM and 960 nM, the concentration at 0.25 h ([2]; mice, 20 mg/kg intraperitoneal, 2 hour, 20 mg/kg, read-out: Brain Concentration) was 660 nM and 690 nM and the “Brain to Plasma Ratio” value [2, 5] was 0.90 and 0.72. For the same molecule, the “Plasma Concentration” value [2, 5] was 40 nM, the concentration at 0.25 h ([2]; mice, 20 mg/kg intraperitoneal, 8 hour, 20 mg/kg, read-out: Brain Concentration) was 40 nM and 30 nM and the half-life ([2]; mouse, ip, plasma, male C57BL/6 mice, 20 mg/kg intraperitoneal) was 1.57 h.

Source: US20230339854A1, “Negative Allosteric Modulation of GluN3-Containing N-Methyl-D-Aspartate Receptors” (Emory University, priority 2020, published 2023)
